Measured values published in US20130089724A1, “NOVEL ORGANIC UV ABSORBERS” (COMMISSARIAT A L'ENERGIE ATOMIQUE ET AUX ENERGIES …, priority 2010, published 2013).

Columns and labels:
Assay type in all cases: physicochemical
[1] = accelerated aging test of polyurethane varnish deposited layer, 550 W/m^2, 72 h; conditions: 50 mg per g polyurethane solution
Procedure: A curing agent is added to a solution of polyurethane (70% by weight) in a xylene/toluene mixture.
A molecule of nonfunctionalized pyrene (CAS No. 129000) is added in a proportion of 50 mg of pyrene per gram of polyurethane solution.
The mixture is deposited by “knife coating” on a glass slide transparent to UV-A radiation.
After drying in ambient air, this slide is subjected to an accelerated aging test in a Suntest CPS chamber from Atlas. The aging conditions are as follows: irradiance at 550 W/m^2, xenon arc lamp equipped with a “sheet glass” filter which cuts off the UV radiation below 310 nm, exposure time 72 h.
The pyrene not in accordance with the invention is obviously not stable to light.

[2] = accelerated aging test (Suntest CPS) of silica sol-gel deposited layer, 620 W/m^2, 24 h; conditions: 0.5 mg/ml solution, xenon arc 620 W/m^2, cut-off 310 nm
Procedure: A silica sol-gel solution is formed by the hydrolysis of a silicon alkoxide (tetraethoxysilane, CAS No. 78-10-4) in the presence of ethanol and hydrochloric acid.
A 0.5 mg/ml aqueous pyrene-1-carboxylic solution is formed with a molar equivalent of sodium hydroxide.
One volume of the pyrene-1-carboxylic solution is mixed with an equivalent volume of the sol-gel solution: the mixture is deposited by “knife coating” on a microscope slide transparent to UV-A radiation.
After drying in ambient air, this slide is subjected to an accelerated aging test in a Suntest CPS chamber from Atlas.
The aging conditions are as follows: irradiance at 620 W/m^2, xenon arc lamp equipped with a “sheet glass” filter which cuts off the UV radiation below 310 nm, exposure time 24 h.
FIG. 1 reports the UV transmission spectra of the silica sol-gel deposited layer in which the pyrene-1-carboxylic is incorporated, before/after exposure.
The “light” stability of the pyrene-1-carboxylic compound is thus confirmed.

[3] = accelerated aging test of colored textile behind sol-gel filter layer (NF EN ISO 105-B2)
Procedure: A sol-gel deposited layer is produced on a glass slide under the same conditions as example 1 above, with a starting 5 mg/ml solution of pyrene-1-carboxylic.
This sample is used as filter affixed to a colored textile.
A glass slide not treated with this deposited layer is also affixed to another sample of the same colored textile for the purposes of reference sample.
The two samples are exposed to an accelerated aging test in a Suntest CPS chamber from Atlas. The aging conditions are as follows and in accordance with the standard NF EN ISO 105-B2: irradiance at 550 W/m^2, xenon arc lamp equipped with a “sheet glass” filter which cuts off the UV radiation below 310 nm, exposure time 72 h.

[4] = comparative accelerated aging test of pyrene derivatives in silica sol-gel layer; conditions: 0.5 mg/ml, 620 W/m^2, 24 h, black body 55° C, versus pyrenesulfonic, pyreneboronic, pyreneacetic
Procedure: A silica sol-gel solution as defined in example 1 is prepared.
At the same time, four aqueous solutions respectively comprising pyrenecarboxylic, pyrenesulfonic, pyreneboronic and pyreneacetic, at 0.5 mg/ml, with one molar equivalent of sodium hydroxide, are prepared.
A volume of each aqueous solution thus obtained is mixed with an equivalent volume of the sol-gel solution: each mixture obtained is subsequently deposited by “knife coating” on a microscope slide transparent to UV-A radiation.
After drying in ambient air, these slides are subjected to an accelerated aging test in a Suntest CPS chamber from Atlas.
The aging conditions are as follows: irradiance at 620 W/m^2, xenon arc lamp equipped with a “sheet glass” filter which cuts off the UV radiation below 310 nm, exposure time 24 h. The temperature for regulating the black body is 55° C.
FIG. 3 reports the absorption spectra of the different pyrene derivatives described above as a function of time.

[5] = stability toward solar irradiation (general statement); conditions: compared with conventional UV stabilizers / substituted benzotriazoles

Compound	UV/vis transmission properties of the coating before/after exposure [1]	UV/visible transmission properties of the coating before/after exposure [2]	color change of the sol-gel deposited layer after exposure ([3]; 5 mg/ml solution, xenon arc 550 W/m^2, 72 h)	degradation grade on the scale of the blues of the protected colored textile ([3]; scale of 8 levels, 1 most degraded, 8 least degraded, 550 W/m^2, 72 h, untreated reference grade 1)	stability over time of absorption peak under UV [4]	stability toward solar irradiation / radiation [5]
c1cc2ccc3cccc4ccc(c1)c2c34 [pyrene]	very significantly degraded					
O=C(O)c1ccc2ccc3cccc4ccc1c2c34 [pyrene-1-carboxylic, pyrene-1-carboxylic acid]		retained	has not changed in color	4-5	best stability over time	equivalent to that of substituted benzotriazoles
